Measured values as given in paper PMC10574557, “The Inhibitory Effect of Magnolol on the Human TWIK1 Channel Is Related to G229 and T225 Sites” (Molecules, 2023).
Changes are numbered by the printed parent chain.

Columns and labels:
Format in all cases: cell-based
TWIK1 (K2P1.1/KCNK1) [1] = target: T1, TWIK1 (K2P1.1/KCNK1) (Homo sapiens, UniProt O00180, S224A); experiment: whole-cell patch clamp, transiently transfected HEK293, Hill fit
T1 construct: full-length cDNA (OriGene) in pcDNA3.1(neo+), stably expressed in HEK293; mutants transiently transfected in HEK293 with CD8; homodimer
T1 sequence (O00180 1-336 S224A): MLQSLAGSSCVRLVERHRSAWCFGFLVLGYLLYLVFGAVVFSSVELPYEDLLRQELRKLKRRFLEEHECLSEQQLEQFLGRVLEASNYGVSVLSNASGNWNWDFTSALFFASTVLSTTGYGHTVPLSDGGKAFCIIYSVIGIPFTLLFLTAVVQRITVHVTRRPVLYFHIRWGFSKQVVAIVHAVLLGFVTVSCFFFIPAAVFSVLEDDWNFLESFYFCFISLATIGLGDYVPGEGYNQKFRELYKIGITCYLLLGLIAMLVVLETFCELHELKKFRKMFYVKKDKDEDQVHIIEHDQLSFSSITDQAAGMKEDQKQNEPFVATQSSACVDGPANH

TWIK1 (K2P1.1/KCNK1) [2] = target: T2, TWIK1 (K2P1.1/KCNK1) (Homo sapiens, UniProt O00180, L223A); experiment: as above
T2 construct: full-length cDNA (OriGene) in pcDNA3.1(neo+), stably expressed in HEK293; mutants transiently transfected in HEK293 with CD8; homodimer
T2 sequence (O00180 1-336 L223A): T1 sequence (O00180 1-336 S224A) with L223A, A224S

TWIK1 (K2P1.1/KCNK1) [3] = target: T3, TWIK1 (K2P1.1/KCNK1) (Homo sapiens, UniProt O00180, T225A); experiment: as above
T3 construct: full-length cDNA (OriGene) in pcDNA3.1(neo+), stably expressed in HEK293; mutants transiently transfected in HEK293 with CD8; homodimer
T3 sequence (O00180 1-336 T225A): T1 sequence (O00180 1-336 S224A) with A224S, T225A

TWIK1 (K2P1.1/KCNK1) [4] = target: T4, TWIK1 (K2P1.1/KCNK1) (Homo sapiens, UniProt O00180, I140A); experiment: as above
T4 construct: full-length cDNA (OriGene) in pcDNA3.1(neo+), stably expressed in HEK293; mutants transiently transfected in HEK293 with CD8; homodimer
T4 sequence (O00180 1-336 I140A): T1 sequence (O00180 1-336 S224A) with I140A, A224S

TWIK1 (K2P1.1/KCNK1) [5] = target: T5, TWIK1 (K2P1.1/KCNK1) (Homo sapiens, UniProt O00180); experiment: whole-cell patch clamp, HEK293-TWIK1 stable line, Hill fit
T5 construct: full-length cDNA (OriGene) in pcDNA3.1(neo+), stably expressed in HEK293; mutants transiently transfected in HEK293 with CD8; homodimer
T5 sequence (O00180 1-336): T1 sequence (O00180 1-336 S224A) with A224S

TWIK1 (K2P1.1/KCNK1) [6] = target: T6, TWIK1 (K2P1.1/KCNK1) (Homo sapiens, UniProt O00180, G229A); experiment: whole-cell patch clamp, transiently transfected HEK293, Hill fit
T6 construct: full-length cDNA (OriGene) in pcDNA3.1(neo+), stably expressed in HEK293; mutants transiently transfected in HEK293 with CD8; homodimer
T6 sequence (O00180 1-336 G229A): T1 sequence (O00180 1-336 S224A) with A224S, G229A

- IC50 (TWIK1 (K2P1.1/KCNK1) [1]): 7.43 ± 3.2 µM
- IC50 (TWIK1 (K2P1.1/KCNK1) [2]): 9.55 ± 1.62 µM
- IC50 (TWIK1 (K2P1.1/KCNK1) [3]): 21.8 ± 7.93 µM
- IC50 (TWIK1 (K2P1.1/KCNK1) [4]): 10.2 ± 1.07 µM
- IC50 (TWIK1 (K2P1.1/KCNK1) [5]): 6.21 ± 0.13 µM
- IC50 (TWIK1 (K2P1.1/KCNK1) [6]): 20.8 ± 3.2 µM
SMILES: C=CCc1ccc(O)c(-c2cc(CC=C)ccc2O)c1 [magnolol]
